Holding throughout (assay type): physicochemical
Data set [1] in a line: Particle size of FCG24 and FLF23 in 1% Tween 20 suspensions (Countess / dynamic light scattering). To be noted: 1% Tween 20 suspension; dynamic light scattering particle size analyser.
The nature of data set [2]: Test of solubility of peptide SPAPP to various solvents (visual transparency). The source says: (1) Powdered purified SPAPP was mixed with various solvents at various concentrations to examine solubility.
The term “soluble” used in the following description means a state in which solvent is visually transparent and “insoluble” means a state in which solvent is visually cloudy.

Data set [3] is described as follows: Isoelectric point of SPAPP.
Data set [4] in a line: Molecular weight distribution of SPAPP aggregates (centrifugation, spin filters, BCA assay). On the procedure: The molecular weight distribution of SPAPP aggregates in the suspension was measured in accordance with the following procedure.
(i) The suspension was centrifuged at 15,000 rpm for five minutes and divided into supernatant and precipitate. This centrifugation causes particles equal to or larger than about 1 μm to precipitate.
(ii) The supernatant was applied to a molecular weight 100,000 cutoff spin filter (Amicon Microcon YM-100) and caused to pass through the filter by centrifugation.
(iii) The flow-through solution of (ii) was applied to a molecular weight 10,000 cutoff spin filter and caused to pass through the filter by centrifugation.
On each stage of the process described above, the protein concentration of the solution was measured by the BCA protein assay (Thermo Fisher Scientific) using BSA as the standard.
The time from suspension of SPAPP in pure water to addition of various surfactants was changed to confirm that the molecular size distribution of aggregates varies depending on the time. For example, in the case of 1% Tween 20, the insoluble fraction (precipitate) was 5% when the surfactants were added immediately after suspension of SPAPP in pure water, 17% when added after 1.5 hours, and 48% when added after 3 hours.

Data set [5] can be described thus: Molecular size distribution of SPAPP in other nonionic surfactant solutions. The conditions noted are these: 1% PEG60 dodecyl ether, Triton X-100 or Nonidet P-40; surfactant added immediately or after 90 minutes. As for the experimental part: It was examined whether SPAPP forms high-molecular-weight aggregates in other nonionic surfactant solutions. PEG60 dodecyl ether (Polypure), Triton X-100, and Nonidet P-40 were used as surfactants at 1% in each case. As was the case with the method of Example 2, each of the surfactants was used for preparing SPAPP suspension and, after the size fractionation using centrifugation and spin-type molecular weight cutoff filters, 10% SDS was added to and mixed with each of fractions to the final concentration of 1% to dissolve the aggregates. The peptide concentrations of the fractions were measured by the BCA assay and the molecular weight distribution of SPAPP aggregates were summarized as shown in FIGS. 6A and 6B. […] In the histograms, “Ppt” indicates peptides removed by centrifugation, i.e., precipitate, which is considered to have a size of 1 μm or larger and a molecular weight of several hundred kilodaltons or more. “>100 kDa” indicates 100 kDa or more and “<100 kDa” indicates 100 kDa or less.

Ends that are not written are not given here.

Consider “FLFCWILMILVVLTFVVGANVEK (listed as Homo sapiens) [FLF23]”, for which the particle size entry in data set [1] is reported as “particles with sizes larger than the signals of only the 1% Tween 20 solution were confirmed”.
Turning to MLPGLALLLLAAWTARA-OH [SPAPP], the Solubility entry in data set [2] (0.1% trifluoroacetic acid (pH 2.0), SPAPP conc. 7.5 mg/ml) is reported as “Soluble”; in data set [2] (1% Nonidet P40, SPAPP conc. 1~5 mg/ml), “Soluble”; in data set [2] (1% PEG12, SPAPP conc. 1~5 mg/ml) it was “Soluble”; in data set [2] (1% PEG24, SPAPP conc. 1~5 mg/ml), “Soluble”; in data set [2] (1% PEG60 docesylether, SPAPP conc. 1~5 mg/ml) it was “Soluble”; in data set [2] (1% SDS (anionic surfactant), SPAPP conc. 1~5 mg/ml) it was “Soluble”. In addition, the Solubility result in data set [2] (1% TritonX-100, SPAPP conc. 1~5 mg/ml) was “Soluble”; in data set [2] (1% Tween20, SPAPP conc. 1~5 mg/ml), “Soluble”; in data set [2] (1% Tween80, SPAPP conc. 1~5 mg/ml), “Soluble”; in data set [2] (1% cholesterol-PEG (NOF CORPORATION NO. CS050), SPAPP conc. 1~5 mg/ml), “Soluble”; in data set [2] (1% formic acid (pH 3.0), SPAPP conc. 0.5 mg/ml), “Soluble”; in data set [2] (100% DMF, SPAPP conc. 20 mg/ml), “Soluble”. Further, the Solubility entry in data set [2] (100% DMS0, SPAPP conc. 50 mg/ml) is given as “Soluble”; in data set [2] (100% methanol, SPAPP conc. 0.5 mg/ml), “Soluble”; in data set [2] (Phosphate buffer (PBS) (pH 7)), “Insoluble”; in data set [2] (Pure water, SPAPP conc. 0.1 mg/ml), “Insoluble”; in data set [2] (neutral aqueous solutions) it was “completely insoluble”; in data set [2] (neutral aqueous solutions containing polar and nonionic surfactants), “soluble”. The Solubility entry in data set [2] (polar organic solvents) and in data set [2] (strongly acidic aqueous solutions) was “soluble” in each case. Also, the isoelectric point in data set [3] is listed as 10.9. Besides, the “insoluble fraction (precipitate)” value in data set [4] (1% Tween 20 added after 1.5 hours in pure water) was found to be 17%; in data set [4] (1% Tween 20 added after 3 hours in pure water), 48%; in data set [4] (1% Tween 20 added immediately after suspension of SPAPP in pure water) it was 5%. In addition, in data set [5], the “formation of high-molecular-weight aggregates” value was “high-molecular-weight aggregates are formed with any of the surfactants”.

Values taken from patent US9506933B2, “Method of preparing antigen for acquiring anti-hydrophobic peptide antibody” (TOAGOSEI CO., LTD., priority 2011, dated 2016).
